Measured values as given in patent publication US7109220B2, “Amino substituted pyridinyl methanone compounds useful in treating kinase disorders” (Janssen Pharmaceutica N.V., priority 2003, dated 2006).
pIC50: −log10 of the molar value.

Assays:
VEGF-R2 kinase = molecular target: T1, VEGF-R2 kinase (Rattus norvegicus, UniProt O08775); assay: VEGF-R2 Kinase Screening Assay; format: biochemical; conditions: soluble rat VEGF-R2 kinase, 10 μM ATP; read-out: VEGF-R IC50
T1 construct: polyhistidine (N)
Protocol: (§1) A kinase reaction mixture was prepared containing 50 mM Tris-HCl pH=8, 10 mM MgCl2, 0.1 mM Na3PO4, 1 mM DTT, 10 μM ATP, 0.025 uM biotinylated peptide substrate and 0.8 μCuries per well^33P-γ-ATP [2000–3000 Ci/mmol]. 70 μL of the kinase reaction mixture was dispensed into the well of a streptavidin coated FlashPlate™ (Cat. #SMP103, NEN, Boston, Mass.). 1 μL of test compound stock in 100% DMSO was added to the wells resulting in a final concentration of 1% DMSO in the mixture with a 100 μL final reaction volume. Soluble rat VEGF-R2 kinase^3 was diluted in 50 mM Tris-HCl pH=8.0, 0.1% BSA at a concentration of 5 ng per microliter and 30 μL (150 ng enzyme per test well) was added to each well to initiate the reaction. The reaction was incubated for one hour at 30° C. At the end of the 1-hour incubation, the reaction was terminated by aspirating the reaction mixture from the plate and washing the wells twice with PBS containing 100 mM EDTA. The PLC1 biotinylated peptide substrate became immobilized on the Flashplate™ and the incoporation of ^33P-γ-ATP was measured by reading the plate on a scintillation counter. Inhibition of the enzymatic activity of the VEGF-R was measured by observing a reduced amount of ^33P-γ-ATP incorporated into the immobilized peptide. ^3VEGF-R2 kinase (Vascular Endothelial Growth Factor Receptor-2): a fusion protein containing a polyhistidine tag at the N-terminus followed by amino acids 786–1343 of the rat VEGF-R2 kinase domain GenBank Accession #U93306); Peptide Substrate (Biotin)KHKKLAEGSAYEEV-Amide
(§2) IC50 values listed as >10 or >100 indicate no observed 50% inhibition at the highest dose tested, nor was an inhibition maximum observed.

CDK1:Cyclin-B = molecular target: T2, CDK1:Cyclin-B (Homo sapiens, UniProt P06493); assay: CDK1 Screening Assay; format: biochemical; conditions: 10 μM ATP, histone-H1 peptide substrate, 1 hour at 30° C.
T2 construct: purchased New England Biolabs, Beverly, Mass; (CDK1); BIOMOL, Plymouth Meeting, Pa; (Cyclin-B) #6020 (CDK1); #SE-195 (Cyclin-B); host or cells: insect cells
Protocol: (§3) A kinase reaction mixture was prepared containing 50 mM Tris-HCl pH=8, 10 mM MgCl2, 0.1 mM Na3PO4, 1 mM DTT, 10 μM ATP, 0.025 μM biotinylated histone-H1 peptide substrate and 0.2 μCuries per well^33P-γ-ATP [2000–3000 Ci/mmol]. 70 μL of the kinase reaction mixture was dispensed into the well of a streptavidin coated FlashPlate™ (Cat. #SMP103, NEN, Boston, Mass.). Then 1 μL of test compound stock in 100% DMSO was added to the wells resulting in a final concentration of 1% DMSO in the reaction with a 100 μL final reaction volume. CDK1:Cyclin-B protein^1 was diluted in 50 mM Tris-HCl pH=8.0, 0.1% BSA at a concentration of 1 ng per microliter. 30 μL (30 ng enzyme per test well) was added to each well to initiate the reaction, The reaction was incubated for one hour at 30° C. At the end of the 1-hour incubation, the reaction was terminated by aspirating the reaction mixture from the plate and washing the wells twice with PBS containing 100 mM EDTA. The histone-H1 biotinylated peptide substrate became immobilized on the Flashplate™ and the incorporation of ^33P-γ-ATP was measured by reading the plate on a scintillation counter. Inhibition of the enzymatic activity of CDK1 was measured by observing a reduced amount of ^33P-γ-ATP incorporated into the immobilized peptide. ^1CDK1 (cyclin dependent kinase 1) was isolated from insect cells expressing both the human CDK1 catalytic subunit and its positive regulatory subunit Cyclin B (CDK1: New England Biolabs, Beverly, Mass., Cat. #6020; Cyclin-B: BIOMOL, Plymouth Meeting, Pa., Cat. #SE-195); Peptide Substrate (Biotin)KTPKKAKKPKTPKKAKKL-Amide.
as §2

HER2 kinase = molecular target: T3, HER2 kinase (Homo sapiens, UniProt P04626); assay: HER-2 Kinase Screening Assay; format: biochemical; conditions: HER2 cytoplasmic domain construct, 10 μM ATP
T3 construct: polyhistidine (N); 24 additional non-native amino acids (between the His tag and HER2) (N)
Protocol: as §1
Using the procedure and materials of Example 3, replacing VEGF-R2 kinase with HER2^4, the IC50 data for HER2 kinase is shown in Table 4. ^4HER2 (Human Epidermal Growth Factor Receptor-2): a construct containing a polyhistidine tag at the N-terminus followed by 24 additional non-native amino acids beginning at amino acid 676 (Accession number M11730) followed by the remainder of the HER2 cytoplasmic domain; Peptide Substrate (Biotin)KHKKLAEGSAYEEV-Amide.
IC50 values listed as >100 indicate no observed 50% inhibition at the highest dose tested, nor was an inhibition maximum observed.

CDK2:Cyclin-E = molecular target: T4, CDK2:Cyclin-E (Homo sapiens, UniProt P24941); assay: CDK2 Screening Assay; format: biochemical; conditions: 10 μM ATP, histone-H1 peptide substrate
T4 construct: purchased Upstate Biotechnology, Lake Placid, N.Y
Protocol: as §3
Using the procedure and materials of Example 1, replacing CDK1:Cyclin-B protein with CDK2:Cyclin-E protein^2, the IC50 data for CDK2 is shown in Table 2. ^2CDK2 (cyclin dependent kinase 2) in complex with cyclin E is commercially available (Upstate Biotechnology, Lake Placid, N.Y.); Peptide Substrate (Biotin)KTPKKAKKPKTPKKAKKL-Amide
IC50 values listed as ˜100 indicate no observed 50% inhibition at the highest dose tested, nor was an inhibition maximum observed.

HCT-116 colon carcinoma = assay: Inhibition of Cell Proliferation (14C-thymidine incorporation), HCT-116; format: cell-based; conditions: Homo sapiens
Protocol: (§4) The ability of a test compound to inhibit the proliferation of cell growth was determined by measuring incorporation of ^14C-labelled thymidine into newly synthesized DNA within the cells. This method was used on cell lines derived from carcinomas originating from several tissues such as HeLa cervical adenocarcinoma (American Type Culture Collection (ATCC), Virginia, Cat. #CCL-2), HCT-116 colon carcinoma (CCL-247), MDA-MB-231 (Xenogen Corp.), PC-3 prostate adenocarcinoma (ATCC CRL-1435) and A375 malignant melanoma (ATCC CRL-1619).
(§5) Using this method, the effect of a compound on cell growth for cells with many different phenotypes can be determined. Cells were trypsinized and counted and 3000–8000 cells were added to each well of a 96-well CytoStar tissue culture treated scintillating microplate (Amersham #RPNQ0160) in complete medium in a volume of 100 μl. Cells were incubated for 24 hours in complete medium at 37° C. in an atmosphere containing 5% CO2. 1 μL of test compound in 100% DMSO was then added to the wells of the plate. DMSO only was added to control wells. Cells were incubated for 24 more hours in complete medium at 37° C. in an atmosphere containing 5% CO2. […] The degree of methyl ^14C-thymidine incorporation was quantified on a Packard Top Count.

A375 malignant melanoma = assay: Inhibition of Cell Proliferation (14C-thymidine incorporation), A375; format: cell-based; conditions: Homo sapiens, A-375
Protocol: as §4, §5

[1] = tested on: HeLa cervical adenocarcinoma; assay: Inhibition of Cell Proliferation (14C-thymidine incorporation), HeLa; format: cell-based; conditions: Homo sapiens
Protocol: as §4, §5

T1 sequence (O08775 786-1343): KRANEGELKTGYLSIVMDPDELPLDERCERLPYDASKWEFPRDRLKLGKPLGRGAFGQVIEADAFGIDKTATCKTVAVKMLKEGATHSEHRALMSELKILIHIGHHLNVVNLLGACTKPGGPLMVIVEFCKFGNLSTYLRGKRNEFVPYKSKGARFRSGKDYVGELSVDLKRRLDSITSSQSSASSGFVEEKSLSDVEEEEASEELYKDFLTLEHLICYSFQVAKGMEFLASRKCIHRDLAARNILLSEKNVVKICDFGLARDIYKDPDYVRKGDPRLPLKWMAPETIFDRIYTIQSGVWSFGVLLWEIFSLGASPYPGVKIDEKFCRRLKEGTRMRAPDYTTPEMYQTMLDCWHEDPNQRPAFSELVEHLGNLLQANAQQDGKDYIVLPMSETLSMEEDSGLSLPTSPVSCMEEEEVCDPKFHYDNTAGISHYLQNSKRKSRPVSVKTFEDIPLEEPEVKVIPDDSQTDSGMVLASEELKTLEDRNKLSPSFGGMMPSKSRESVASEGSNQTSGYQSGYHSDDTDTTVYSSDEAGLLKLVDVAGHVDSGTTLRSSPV
T3 sequence (P04626 676-1255 limits assumed): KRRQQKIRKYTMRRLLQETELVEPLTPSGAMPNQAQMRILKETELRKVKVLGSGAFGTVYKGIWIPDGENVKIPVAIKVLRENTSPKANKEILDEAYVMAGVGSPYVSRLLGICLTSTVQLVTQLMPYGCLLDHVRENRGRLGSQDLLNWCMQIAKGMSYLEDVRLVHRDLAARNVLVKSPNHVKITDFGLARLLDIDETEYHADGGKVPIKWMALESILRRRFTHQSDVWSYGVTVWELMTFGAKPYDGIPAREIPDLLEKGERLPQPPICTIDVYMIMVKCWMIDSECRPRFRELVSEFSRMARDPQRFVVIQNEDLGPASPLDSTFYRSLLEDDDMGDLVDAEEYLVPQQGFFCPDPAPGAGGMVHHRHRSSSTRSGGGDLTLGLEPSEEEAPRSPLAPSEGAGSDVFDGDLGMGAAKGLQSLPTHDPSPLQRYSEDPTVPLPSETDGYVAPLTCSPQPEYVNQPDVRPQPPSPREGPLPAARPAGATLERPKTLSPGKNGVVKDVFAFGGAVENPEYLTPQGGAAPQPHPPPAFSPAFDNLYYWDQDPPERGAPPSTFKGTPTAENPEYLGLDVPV
T2 sequence (P06493 whole entry): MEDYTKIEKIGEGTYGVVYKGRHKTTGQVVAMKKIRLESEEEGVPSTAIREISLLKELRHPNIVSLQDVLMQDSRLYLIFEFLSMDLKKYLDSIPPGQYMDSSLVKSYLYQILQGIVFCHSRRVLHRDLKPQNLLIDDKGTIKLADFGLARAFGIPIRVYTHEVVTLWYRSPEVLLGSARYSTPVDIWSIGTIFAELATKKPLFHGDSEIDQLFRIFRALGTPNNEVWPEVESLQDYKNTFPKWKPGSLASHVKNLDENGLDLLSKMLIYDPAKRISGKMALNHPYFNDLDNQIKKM
T2 sequence (P14635 whole entry partner): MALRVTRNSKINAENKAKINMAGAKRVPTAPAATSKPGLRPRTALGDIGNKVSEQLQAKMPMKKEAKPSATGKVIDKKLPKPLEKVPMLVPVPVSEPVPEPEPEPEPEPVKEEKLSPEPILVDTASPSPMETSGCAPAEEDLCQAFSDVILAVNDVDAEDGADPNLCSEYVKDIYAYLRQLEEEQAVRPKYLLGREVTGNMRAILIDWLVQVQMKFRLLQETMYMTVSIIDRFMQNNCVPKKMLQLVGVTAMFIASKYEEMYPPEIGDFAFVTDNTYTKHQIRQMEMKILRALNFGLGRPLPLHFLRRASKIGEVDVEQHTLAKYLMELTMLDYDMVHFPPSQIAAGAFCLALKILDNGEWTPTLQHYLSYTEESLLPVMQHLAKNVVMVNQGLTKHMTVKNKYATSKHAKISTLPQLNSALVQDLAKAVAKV

| Compound | pIC50 (VEGF-R2 kinase) | melting point | pIC50 (CDK1:Cyclin-B) | pIC50 (HER2 kinase) | pIC50 (CDK2:Cyclin-E) | pIC50 (HCT-116 colon carcinoma) | pIC50 (A375 malignant melanoma) | pIC50 [1] |
| --- | --- | --- | --- | --- | --- | --- | --- | --- |
| N#Cc1ccc(Nc2ccc(C(=O)c3c(F)cccc3F)c(N)n2)cc1 [Cpd 8, 4-[[6-amino-5-(2,6-difluorobenzoyl)-2-pyridinyl]amino]benzonitrile] | < 5.00 | 208 to 210 °C (dec.) | – | – | – | – | – | – |
| Nc1ccc(C(=O)c2c(F)cccc2F)c(N)n1 [Cpd 1, (2,6-diamino-3-pyridinyl)(2,6-difluorophenyl)methanone] | < 5.00 | 179 to 181 °C | – | – | – | – | – | – |
| CCCCOc1cc(NC(=O)Nc2ccccc2)nc(N)c1C(=O)c1c(F)cccc1F [Cpd 32, 1-[6-Amino-4-butoxy-5-(2,6-difluoro-benzoyl)-pyridin-2-yl]-3-phenyl-urea] | < 4.00 | – | < 4.00 | < 4.00 | ≤ 4.00 | – | – | – |
| CCCCOc1cc(N)nc(N)c1C(=O)c1c(F)cccc1F [Cpd 31, (2,6-Diamino-4-butoxy-pyridin-3-yl)-(2,6-difluoro-phenyl)-methanone] | 4.40 | – | 5.94 | 5.94 | 5.88 | – | – | – |
| CCCCOc1cc(NC(=S)Nc2ccccc2)nc(N)c1C(=O)c1c(F)cccc1F [Cpd 33, 1-[6-Amino-4-butoxy-5-(2,6-difluoro-benzoyl)-pyridin-2-yl]-3-phenyl-thiourea] | < 4.00 | – | < 4.00 | < 4.00 | ≤ 4.00 | – | – | – |
| Nc1nc(Nc2ccc([N+](=O)[O-])cc2)ccc1C(=O)c1c(F)cccc1F [Cpd 9, [2-amino-6-[(4-nitrophenyl)amino]-3-pyridinyl](2,6-difluorophenyl)methanone] | < 5.00 | 220 to 225 °C | – | – | – | – | – | – |
| CCCCOc1cc(Nc2ccc(S(=O)(=O)N(C)C)cc2)nc(N)c1C(=O)c1c(F)cccc1F [Cpd 35, 4-[6-Amino-4-butoxy-5-(2,6-difluoro-benzoyl)-pyridin-2-ylamino]-N,N-dimethyl-benzenesulfonamide] | < 4.00 | – | ~6.00 | < 4.00 | 6.21 | – | – | – |
| CCCCOc1cc(Nc2ccc(S(N)(=O)=O)cc2)nc(N)c1C(=O)c1c(F)cccc1F [Cpd 36, 4-[6-Amino-4-butoxy-5-(2,6-difluoro-benzoyl)-pyridin-2-ylamino]-benzenesulfonamide] | < 4.00 | – | 6.55 | 6.00 | 7.15 | 5.17 | 5.53 | 4.97 |
| CCCCOc1cc(NC(=O)c2ccccc2)nc(N)c1C(=O)c1c(F)cccc1F [Cpd 34, N-[6-Amino-4-butoxy-5-(2,6-difluoro-benzoyl)-pyridin-2-yl]-benzamide] | < 4.00 | – | < 4.00 | < 4.00 | ≤ 4.00 | – | – | – |
